Laboratory results: patent publication US9359338B2, “Cyclopropanecarboxamido-substitute aromatic compounds as anti-tumor agents” (Crown Bioscience Inc. (Taiwan), priority 2012, dated 2016)
pIC50: −log10 of the molar value.

Tests used:
KDR kinase (790-1356 AA) = KDR kinase (790-1356 AA) (Homo sapiens (Human), UniProt P35968); assay: Inhibitory activity at KDR kinase (Lance Ultra Ulight-TK assay); type: biochemical
Procedure: Inhibitory Activity of Compounds at KDR Kinase
• [Experimental method]: Use Lance@Ultra Ulight™-TK assay kit from PerKinElmer to evaluate the inhibitory activity of compounds at KDR kinase. • [Instrument]: PerKinElmer's ENVISION plate reader • [Materials]: Optiplate-384 well plate (PerKinElmer), kinase buffer (50 mM Hepes pH7.5, 0.25 mM EGTA, 2 mM DTT, 0.01% Tween 20, 10 mM Mg^2+, 0.5 mM Mn^2+), KDR kinase (790-1356 AA, Crown Bioscience), KDR kinase substrate (PerKinElmer catalogue # TRF0127-M), Lance@Eu-W1024-anti-phosphotyrosine (PT66) (PerKinElmer, catalogue #AD0068), ATP (Invitrogen), DMSO (Sigma, catalogue #34869), purified water (Millipore, type: Milli-Q). • [Study conditions]: Mix KDR (final concentration: 20 nM) and compound (final DMSO: 0.5%), pre-incubate for 20 min at 30° C.; then add ATP (final concentration: 90 μM) and the substrate (final concentration […]). React for 2 hrs at 30° C. After the reaction, add antibody and reaction for 60 min at 30° C. Read the plate (615 nm, 665 nm), calculate the ratio of the value at 665 nm vs 615 nm and analyze the data. • [Samples]: Compounds in the examples and Sorafenib (positive control) • [Data Analysis]: Use CBIS data analysis software to calculate IC50 values

pERK in MDA-MB-231 cells = assay: Inhibitory activity at pERK (In Cell Western, MDA-MB-231 cells); type: cell-based; settings: Homo sapiens, MDA-MB-231, MDA-MB-231 cells; read-out: MDA-MB-231 pERK IC50
Procedure: Inhibitory Activity of Compounds at pERK
When the cells reach 80% confluency, collect cells by trypsinization and centrifugation at 800 rpm for 3 minutes. Resuspend cells with appropriate volume of medium and count cell numbers. Adjust cell concentration to 70000 cells/mL, and split 100 μL cell suspension per well into 96-well plates. Transfer the plates into cell culture incubator (37° C., 5% CO2) and incubate cells overnight. Discard the medium, wash with PBS once, Prepare compound serial dilutions in culture medium with total 8 compound concentrations at 3-fold serial dilutions (the final top concentration starts from 30 μM). Dispense 75 μL DMEM medium (with 0.1% BSA) and 25 μL of each test compound dilution into corresponding wells with DMSO at 0.3% final concentration. Continue incubating cells in cell culture incubator for additional 2 hrs at 37° C., 5% CO2. Discard culture medium, and wash cells once with PBS. Add 100 μL of 4% formaldehyde solution to each well and fix for 20 min. Discard the formaldehyde, then add 100 μL ice-cold 100% methanol at 4° C. for 20 min. Discard methanol, wash with PBS three times. Add to each well 100 μL of 2% BSA solution, seal for 30 min at room temperature. Discard the BSA solution, add to each well 50 μL of the 1st antibody solution (prepared with 2% BSA, 1:250 dilution), incubate at 4° C. overnight. Discard the 1^St antibody solution, wash with PBS four times. Add to each well […] the 2nd antibody solution (prepared with 1% BSA, 1:1000 dilution), incubate at room temperature for 1 hr. Discard the 2nd antibody solution, wash with PBS four times, add to each well 100 μL PI solution (1.5 μM), incubate at room temperature for 30 min. Use Acumen (TPP) to measure the fluorescence. • [Samples]: Compounds in the examples and sorafenib (positive control) • [Data Analysis]: Use CBIS data analysis software to calculate IC50 values

PLC-PRF-5 cells = assay: Inhibition of proliferation of PLC-PRF-5 cells (ATPlite); type: cell-based; settings: Homo sapiens, PLC-PRF-5, PLC-PRF-5 cells; read-out: PLC-PRF-5 cell proliferation IC50
Text: Inhibitory Activity of Compounds to the Proliferation of PLC-PRF-5 Cells
• [experimental Method]: Use PerKinElmer's ATPlite™ Luminescence ATP Detection Assay System to evaluate the inhibitory activity of compounds to the proliferation of PLC-PRF-5 cells. • [Instruments]: ENVISION plate reader (PerKinElmer) and centrifuge (Thermo Scientific, Sorvall ST16R) • [material]: PLC-PRF-5 cells (ATCC), 96-well plate (Nunc, #165305), DMEM medium (Gibco, #11965-092), PBS (Invitrogen, #10010023), fetal bovine serum (Gibco, #16000044), DMSO (Sigma, #D2650), ATPlite™ Luminescence ATP Detection Assay System (PerkinElmer, #6016949), purified water (Millipore, type: Milli-Q). • [Protocol]: Grow PLC-PRF-5 cells in DMEM supplemented with 10% FBS. When the cells reach 80% confluency, collect cells by trypsinization and centrifugation at 800 rpm for 3 min. Resuspend cells with appropriate volume of medium and count cell numbers. Adjust cell concentration to 50000 cells/mL, and split 160 μL cell suspension per well into 96-well plates. Transfer the plates into cell culture incubator (37° C., 5% CO2) and incubate cells for 2 hrs. Prepare compound serial dilutions in culture medium with total 8 compound concentrations at 3-fold serial dilutions (the final top concentration starts from 30 μM). Dispense 40 μL of each test compound dilution into corresponding wells with DMSO at 0.3% final concentration. Continue incubating cells in cell culture incubator for additional 96 hrs at 37° C., 5% CO2. Discard culture medium, and wash cells once with PBS. Add 50 μL cell lysis buffer per well and shake plates for 5 min at room temperature to ensure complete lysis of cells. Then add 50 μL of substrate solution and shake plates for 1 min at room temperature. Allow the plates to incubate at room temperature for 5 min, followed by recording the luminescence signals using Envision, and subsequent data analysis. • [Samples]: Compounds in the examples and Sorafenib (positive control) • [Data analysis]: Use CBIS data analysis software to calculate IC50 values

KDR kinase (790-1356 AA), sequence (P35968 790-1356): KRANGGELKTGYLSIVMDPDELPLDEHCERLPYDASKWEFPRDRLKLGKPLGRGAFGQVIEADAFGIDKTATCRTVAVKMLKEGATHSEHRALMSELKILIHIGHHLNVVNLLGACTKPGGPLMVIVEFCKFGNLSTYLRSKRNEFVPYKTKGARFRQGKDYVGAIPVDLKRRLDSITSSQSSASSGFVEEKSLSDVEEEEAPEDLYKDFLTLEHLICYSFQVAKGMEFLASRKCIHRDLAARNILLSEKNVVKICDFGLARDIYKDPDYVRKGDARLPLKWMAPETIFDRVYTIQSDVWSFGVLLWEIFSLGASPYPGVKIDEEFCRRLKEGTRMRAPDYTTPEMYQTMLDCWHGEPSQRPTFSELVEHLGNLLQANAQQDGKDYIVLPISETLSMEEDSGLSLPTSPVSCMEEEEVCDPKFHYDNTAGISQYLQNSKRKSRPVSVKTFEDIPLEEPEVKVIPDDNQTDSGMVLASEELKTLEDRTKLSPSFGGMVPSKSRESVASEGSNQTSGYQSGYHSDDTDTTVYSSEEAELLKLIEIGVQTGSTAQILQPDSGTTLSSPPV

pIC50 (KDR kinase (790-1356 AA))	pIC50 (pERK in MDA-MB-231 cells)	Compound	pIC50 (PLC-PRF-5 cells)
7.91	6.52	CC(F)(F)c1cccc(NC(=O)Nc2ccc(Oc3cc(NC(=O)C4CC4)ncn3)c(F)c2)c1 [Exe. 103]	6.43
7.99	6.60	CC(F)(F)c1ccc(F)c(NC(=O)Nc2ccc(Oc3cc(NC(=O)C4CC4)ncn3)c(F)c2)c1 [Exe. 104]	7.00
7.98	6.33	CC(F)(F)c1cc(NC(=O)Nc2ccc(Oc3cc(NC(=O)C4CC4)ncn3)c(F)c2)ccc1F [Exe. 106]	6.07
8.15	7.39	Cc1cc(NC(=O)Nc2ccc(F)c(C(F)(F)F)c2)ccc1Oc1cc(NC(=O)C2CC2)ncn1 [Exe. 111]	5.58
7.84	7.07	Cc1cc(NC(=O)Nc2cccc(C(F)(F)F)c2)ccc1Oc1cc(NC(=O)C2CC2)ncn1 [Exe. 112]	5.70
8.09	7.27	Cc1cc(NC(=O)Nc2cccc(OC(F)(F)F)c2)ccc1Oc1cc(NC(=O)C2CC2)ncn1 [Exe. 113]	6.11
8.01	7.43	Cc1cc(NC(=O)Nc2ccc(Cl)c(OC(F)(F)F)c2)ccc1Oc1cc(NC(=O)C2CC2)ncn1 [Exe. 114]	5.34
8.02	6.52	Cc1cc(NC(=O)Nc2cc(F)cc(C(C)(F)F)c2)ccc1Oc1cc(NC(=O)C2CC2)ncn1 [Exe. 115]	5.88
7.92	7.57	Cc1cc(NC(=O)Nc2ccc(Cl)c(C(C)(F)F)c2)ccc1Oc1cc(NC(=O)C2CC2)ncn1 [Exe. 117]	5.53
7.83	6.74	O=C(Nc1cccc(Oc2cc(NC(=O)C3CC3)ncn2)c1)Nc1ccc(F)c(C(F)(F)F)c1 [Exe. 119]	4.73
7.92	6.21	O=C(Nc1cccc(Oc2cc(NC(=O)C3CC3)ncn2)c1)Nc1cccc(C(F)(F)F)c1 [Exe. 120]	< 4.52
7.94	6.60	O=C(Nc1cccc(Oc2cc(NC(=O)C3CC3)ncn2)c1)Nc1cccc(OC(F)(F)F)c1 [Exe. 121]	< 4.52
8.06	6.88	CC(F)(F)c1cc(NC(=O)Nc2cccc(Oc3cc(NC(=O)C4CC4)ncn3)c2)ccc1Cl [Exe. 122]	4.66
8.13	6.15	CN(c1ccc(NC(=O)Nc2cccc(C(F)(F)F)c2)c(F)c1)c1cc(NC(=O)C2CC2)ncn1 [Exe. 123]	5.08
7.85	6.98	O=C(Nc1ccc(Oc2ccnc(NC(=O)C3CC3)c2)nc1)Nc1cc(N2CCC(F)CC2)cc(C(F)(F)F)c1 [Exe. 129]	5.65
8.11	7.48	CN1CCC(c2cc(NC(=O)Nc3ccc(Oc4ccnc(NC(=O)C5CC5)c4)cn3)cc(C(F)(F)F)c2)CC1 [Exe. 134]	6.70
8.24	6.68	O=C(Nc1cccc(C(F)(F)F)c1)Nc1ccc(Oc2ccnc(NC(=O)C3CC3)c2)cn1 [Exe. 135]	7.00

pIC50 (KDR kinase (790-1356 AA))	pIC50 (pERK in MDA-MB-231 cells)	Compound	pIC50 (PLC-PRF-5 cells)
8.00	7.97	Cc1ccc(NC(=O)Nc2ccc(Oc3ccnc(NC(=O)C4CC4)c3)cc2)cc1C(F)(F)F [Exe. 140]	6.64
7.94	7.69	CC(F)(F)c1cc(NC(=O)Nc2ccc(Oc3ccnc(NC(=O)C4CC4)c3)cc2)ccc1F [Exe. 150]	6.13
7.95	7.83	Cc1ccc(NC(=O)Nc2ccc(Oc3ccnc(NC(=O)C4CC4)c3)c(F)c2)cc1C(F)(F)F [Exe. 154]	6.89
7.92	6.71	O=C(Nc1cc(F)cc(C(F)(F)F)c1)Nc1ccc(Oc2ccnc(NC(=O)C3CC3)c2)c(F)c1 [Exe. 155]	6.24
8.08	7.09	O=C(Nc1ccnc(C(F)(F)F)c1)Nc1ccc(Oc2ccnc(NC(=O)C3CC3)c2)c(F)c1 [Exe. 158]	5.98
8.11	6.73	O=C(Nc1ccc(Oc2ccnc(NC(=O)C3CC3)c2)c(F)c1)Nc1ccc(C(F)(F)F)cc1Cl [Exe. 160]	5.39
7.84	7.37	O=C(Nc1cncc(C(F)(F)F)c1)Nc1ccc(Oc2ccnc(NC(=O)C3CC3)c2)c(F)c1 [Exe. 169]	6.47
7.91	7.52	O=C(Nc1cc(N2CCOCC2=O)cc(C(F)(F)F)c1)Nc1ccc(Oc2ccnc(NC(=O)C3CC3)c2)c(F)c1 [Exe. 171]	5.70
7.83	7.13	CN1CCN(c2cc(C(F)(F)F)cc(NC(=O)Nc3ccc(Oc4ccnc(NC(=O)C5CC5)c4)c(F)c3)n2)CC1 [Exe. 172]	6.71
7.65	7.10	CN1CCC(Nc2cc(C(F)(F)F)cc(NC(=O)Nc3ccc(Oc4ccnc(NC(=O)C5CC5)c4)c(F)c3)n2)CC1 [Exe. 173]	6.60
8.27	7.22	O=C(Nc1ccc(Oc2ccnc(NC(=O)C3CC3)c2)c(F)c1)Nc1cc(C(F)(F)F)cc(N2CCOCC2)n1 [Exe. 174]	6.62
8.24	7.40	O=C(Nc1ccc(Oc2ccnc(NC(=O)C3CC3)c2)c(F)c1)Nc1cc(OC(F)(F)F)ccc1F [Exe. 176]	7.22
8.02	7.43	O=C(Nc1ccc(Oc2ccnc(NC(=O)C3CC3)c2)c(F)c1)Nc1ccc(F)c(OC(F)(F)F)c1 [Exe. 177]	6.16
7.98	7.29	CC(F)(F)c1cc(F)cc(NC(=O)Nc2ccc(Oc3ccnc(NC(=O)C4CC4)c3)c(F)c2)c1 [Exe. 179]	6.69
8.01	7.50	CC(F)(F)c1cccc(NC(=O)Nc2ccc(Oc3ccnc(NC(=O)C4CC4)c3)c(F)c2)c1 [Exe. 180]	6.82
7.91	7.33	O=C(Nc1ccc(Oc2ccnc(NC(=O)C3CC3)c2)c(F)c1)Nc1ccc(C(F)(F)F)c(Cl)c1 [Exe. 185]	5.83
7.76	7.70	Cc1cc(Oc2ccnc(NC(=O)C3CC3)c2)ccc1NC(=O)Nc1cc(F)cc(C(F)(F)F)c1 [Exe. 192]	5.54
